In brackets after ≈: the same amount, converted by molar mass.
Assays:
Assay type in all cases: cell-based
[1] = tested on: Staphylococcus aureus FDA 209PJc-1; assay: Antibacterial activity, agar-dilution MIC, organism No. 1; conditions: Staphylococcus aureus, FDA209PJC1; Organism No. 1, bouillon-agar; read-out: Minimum Inhibitory Concentration
Summary of the method: (§1)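 Specimen is incorporated into bouillon-agar medium at graded levels and the organisms are tested on these plates. The lowest level preventing growth is taken as the MIC (μg/ml of medium).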

[2] = tested on: Staphylococcus aureus Terajima; assay: Antibacterial activity, agar-dilution MIC, organism No. 2; conditions: Staphylococcus aureus; Organism No. 2, bouillon-agar; read-out: Minimum Inhibitory Concentration
Summary of the method: as §1

[3] = tested on: Staphylococcus aureus MS 353; assay: Antibacterial activity, agar-dilution MIC, organism No. 3; conditions: Staphylococcus aureus, MS353; Organism No. 3, bouillon-agar; read-out: Minimum Inhibitory Concentration
Summary of the method: as §1

[4] = tested on: Streptococcus pyogenes Cook; assay: Antibacterial activity, agar-dilution MIC, organism No. 4; conditions: Streptococcus pyogenes; Organism No. 4, bouillon-agar; read-out: Minimum Inhibitory Concentration
Summary of the method: as §1

[5] = tested on: Escherichia coli NIHJ-JC-2; assay: Antibacterial activity, agar-dilution MIC, organism No. 5; conditions: Escherichia coli, NIHJJC2; Organism No. 5, bouillon-agar; read-out: Minimum Inhibitory Concentration
Summary of the method: as §1

[6] = tested on: Escherichia coli K12 C600 IAM 1264; assay: Antibacterial activity, agar-dilution MIC, organism No. 6; conditions: Escherichia coli, IAM1264; Organism No. 6, bouillon-agar; read-out: Minimum Inhibitory Concentration
Summary of the method: as §1

[7] = tested on: Klebsiella pneumoniae PCI-602; assay: Antibacterial activity, agar-dilution MIC, organism No. 7; conditions: Klebsiella pneumoniae, PCI602; Organism No. 7, bouillon-agar; read-out: Minimum Inhibitory Concentration
Summary of the method: as §1

[8] = tested on: Salmonella typhimurium IID 971; assay: Antibacterial activity, agar-dilution MIC, organism No. 8; conditions: Salmonella enterica; Organism No. 8, bouillon-agar; read-out: Minimum Inhibitory Concentration
Summary of the method: as §1

Salmonella typhi 901 = assay: Antibacterial activity, agar-dilution MIC, organism No. 9; conditions: Salmonella enterica, TYPHI, read-out: Minimum Inhibitory Concentration
Summary of the method: as §1

[9] = tested on: Salmonella paratyphi-A 1015; assay: Antibacterial activity, agar-dilution MIC, organism No. 10; conditions: Salmonella enterica, PARATYPHI, read-out: Minimum Inhibitory Concentration
Summary of the method: as §1

[10] = tested on: Salmonella shottmuelleri 8006; assay: Antibacterial activity, agar-dilution MIC, organism No. 11; conditions: Salmonella, 8006; Organism No. 11, bouillon-agar; read-out: Minimum Inhibitory Concentration
Summary of the method: as §1

[11] = tested on: Salmonella enteritidis G 14; assay: Antibacterial activity, agar-dilution MIC, organism No. 12; conditions: Salmonella enterica, ENTERITIDIS; Organism No. 12, bouillon-agar; read-out: Minimum Inhibitory Concentration
Summary of the method: as §1

[12] = tested on: Serratia marcescens IAM 1184; assay: Antibacterial activity, agar-dilution MIC, organism No. 13; conditions: Serratia marcescens, IAM1184; Organism No. 13, bouillon-agar; read-out: Minimum Inhibitory Concentration
Summary of the method: as §1

[13] = tested on: Bacillus subtilis ATCC 6633; assay: Antibacterial activity, agar-dilution MIC, organism No. 14; conditions: Bacillus subtilis, ATCC6633; Organism No. 14, bouillon-agar; read-out: Minimum Inhibitory Concentration
Summary of the method: as §1

[14] = tested on: Pseudomonas aeruginosa IFO 3445; assay: Antibacterial activity, agar-dilution MIC, organism No. 15; conditions: Pseudomonas aeruginosa, IFO3445; Organism No. 15, bouillon-agar; read-out: Minimum Inhibitory Concentration
Summary of the method: as §1

[15] = tested on: Pseudomonas aeruginosa NCTC 10490; assay: Antibacterial activity, agar-dilution MIC, organism No. 16; conditions: Pseudomonas aeruginosa, NCTC10490; Organism No. 16, bouillon-agar; read-out: Minimum Inhibitory Concentration
Summary of the method: as §1

[16] = tested on: Pseudomonas aeruginosa PAO 1; assay: Antibacterial activity, agar-dilution MIC, organism No. 17; conditions: Pseudomonas aeruginosa, PAO1; Organism No. 17, bouillon-agar; read-out: Minimum Inhibitory Concentration
Summary of the method: as §1

[17] = tested on: Proteus morganii IFO 3848; assay: Antibacterial activity, agar-dilution MIC, organism No. 18; conditions: Morganella morganii, IFO3848; Organism No. 18, bouillon-agar; read-out: Minimum Inhibitory Concentration
Summary of the method: as §1

[18] = tested on: Proteus mirabilis IFO 3849; assay: Antibacterial activity, agar-dilution MIC, organism No. 19; conditions: Proteus mirabilis, IFO3849; Organism No. 19, bouillon-agar; read-out: Minimum Inhibitory Concentration
Summary of the method: as §1

Proteus vulgaris OX-19 = assay: Antibacterial activity, agar-dilution MIC, organism No. 20; conditions: Proteus vulgaris, OX19; Organism No. 20, bouillon-agar; read-out: Minimum Inhibitory Concentration
Summary of the method: as §1

Proteus vulgaris HX-19 = assay: Antibacterial activity, agar-dilution MIC, organism No. 21; conditions: Proteus vulgaris, HX19; Organism No. 21, bouillon-agar; read-out: Minimum Inhibitory Concentration
Summary of the method: as §1

[19] = tested on: Proteus rettgeri IFO 3850; assay: Antibacterial activity, agar-dilution MIC, organism No. 22; conditions: Providencia rettgeri, IFO3850; Organism No. 22, bouillon-agar; read-out: Minimum Inhibitory Concentration
Summary of the method: as §1

[20] = tested on: Enterobacter aerogenes ATCC 13048; assay: Antibacterial activity, agar-dilution MIC, organism No. 23; conditions: Klebsiella aerogenes, ATCC13048; Organism No. 23, bouillon-agar; read-out: Minimum Inhibitory Concentration
Summary of the method: as §1

Enterobacter cloacae 963 = assay: Antibacterial activity, agar-dilution MIC, organism No. 24; conditions: Enterobacter cloacae, 963; Organism No. 24, bouillon-agar; read-out: Minimum Inhibitory Concentration
Summary of the method: as §1

[21] = tested on: Micrococcus luteus ATCC 9341; assay: Antibacterial activity, agar-dilution MIC, organism No. 25; conditions: Micrococcus luteus, ATCC9341; Organism No. 25, bouillon-agar; read-out: Minimum Inhibitory Concentration
Summary of the method: as §1

[22] = tested on: Streptococcus pyogenes IFO 3340; assay: Antibacterial activity, agar-dilution MIC, organism No. 26; conditions: Streptococcus pyogenes, IFO3340; Organism No. 26, bouillon-agar; read-out: Minimum Inhibitory Concentration
Summary of the method: as §1

[23] = tested on: Streptococcus faecium IFO 3826; assay: Antibacterial activity, agar-dilution MIC, organism No. 27; conditions: Enterococcus faecium, IFO3826; Organism No. 27, bouillon-agar; read-out: Minimum Inhibitory Concentration
Summary of the method: as §1

[24] = tested on: Mycoplasma pneumoniae IID817; assay: Antimycoplasmal activity, MIC by phenol red colour change, organism No. 28; conditions: Mycoplasma, IID817; Organism No. 28, PPLO broth + 1% glucose, 37° C.; read-out: Minimum Inhibitory Concentration (MIC)
Experimental: Mycoplasma pneumoniae IID817 was used as the test microorganism in a culture medium prepared by adding 1% of glucose to "PPLO broth (manufactured by Difco Co.) liquid culture medium" at 37° C. with phenol red as an indicator, thereby culturing the test microorganism.

[25] = tested on: Candida albicans IAM 4905; assay: Antifungal activity, agar-dilution MIC, organism No. 29; conditions: Candida albicans, IAM4905; Organism No. 29, bouillon-agar; read-out: Minimum Inhibitory Concentration
Summary of the method: as §1

[26] = tested on: Aspergillus niger IFO 6342; assay: Antifungal activity, agar-dilution MIC, organism No. 30; conditions: Aspergillus niger, IFO6342; Organism No. 30, bouillon-agar; read-out: Minimum Inhibitory Concentration
Summary of the method: as §1

Compound	MIC [1] [µg/mL]	MIC [2] [µg/mL]	MIC [3] [µg/mL]	MIC [4] [µg/mL]	MIC [5] [µg/mL]	MIC [6] [µg/mL]	MIC [7] [µg/mL]	MIC [8] [µg/mL]	MIC (Salmonella typhi 901) [µg/mL]	MIC [9] [µg/mL]	MIC [10] [µg/mL]	MIC [11] [µg/mL]	MIC [12] [µg/mL]	MIC [13] [µg/mL]	MIC [14] [µg/mL]	MIC [15] [µg/mL]	MIC [16] [µg/mL]	MIC [17] [µg/mL]	MIC [18] [µg/mL]	MIC (Proteus vulgaris OX-19) [µg/mL]	also measured
[C-]#[N+]C12CC3(/C=C/C(=O)Nc4ccc(C(=O)c5ccccc5)cc4)OC3C1O2 (stereo not drawn) [compound 79]	0.39 (≈ 1.05 µM)	0.78 (≈ 2.09 µM)	0.39 (≈ 1.05 µM)	3.13 (≈ 8.41 µM)	> 200	> 200	3.13 (≈ 8.41 µM)	> 200	200 (≈ 537 µM)	3.13 (≈ 8.41 µM)	6.25 (≈ 16.8 µM)	> 200	> 200	1.56 (≈ 4.19 µM)	> 200	> 200	> 200	6.25 (≈ 16.8 µM)	> 200	1.56 (≈ 4.19 µM)	MIC (Proteus vulgaris HX-19): 1.56 µg/mL (≈ 4.19 µM); MIC [19]: > 200 µg/mL; MIC [20]: > 200 µg/mL; MIC (Enterobacter cloacae 963): > 200 µg/mL; MIC [21]: > 200 µg/mL; MIC [22]: 0.78 µg/mL (≈ 2.09 µM); MIC [23]: 0.78 µg/mL (≈ 2.09 µM); MIC [24]: < 0.2 µg/mL; MIC [25]: 0.39 µg/mL (≈ 1.05 µM); MIC [26]: 3.13 µg/mL (≈ 8.41 µM)
[C-]#[N+]C12CC3(/C=C/C(=O)Nc4ccccc4C(N)=O)OC3C1O2 (stereo not drawn) [compound 62]	12.5 (≈ 40.2 µM)	50 (≈ 161 µM)	12.5 (≈ 40.2 µM)	> 200	> 200	> 200	3.13 (≈ 10.1 µM)	50 (≈ 161 µM)	25 (≈ 80.3 µM)	25 (≈ 80.3 µM)	25 (≈ 80.3 µM)	50 (≈ 161 µM)	> 200	25 (≈ 80.3 µM)	> 200	> 200	> 200	12.5 (≈ 40.2 µM)	> 200	3.13 (≈ 10.1 µM)	MIC (Proteus vulgaris HX-19): 3.13 µg/mL (≈ 10.1 µM); MIC [19]: > 200 µg/mL; MIC [20]: > 200 µg/mL; MIC (Enterobacter cloacae 963): > 200 µg/mL; MIC [21]: 25 µg/mL (≈ 80.3 µM); MIC [22]: 6.25 µg/mL (≈ 20.1 µM); MIC [23]: > 200 µg/mL; MIC [24]: < 0.2 µg/mL; MIC [25]: 100 µg/mL (≈ 321 µM); MIC [26]: 100 µg/mL (≈ 321 µM)
[C-]#[N+]C12CC3(/C=C/C(=O)ON4C(=O)CCC4=O)OC3C1O2 (stereo not drawn) [Compound No. 9]	50 (≈ 172 µM)	50 (≈ 172 µM)	50 (≈ 172 µM)	100 (≈ 345 µM)	50 (≈ 172 µM)	50 (≈ 172 µM)	200 (≈ 689 µM)	50 (≈ 172 µM)	50 (≈ 172 µM)	50 (≈ 172 µM)	50 (≈ 172 µM)	50 (≈ 172 µM)	200 (≈ 689 µM)	200 (≈ 689 µM)	> 200	> 200	> 200	50 (≈ 172 µM)	200 (≈ 689 µM)	200 (≈ 689 µM)	MIC (Proteus vulgaris HX-19): 25 µg/mL (≈ 86.1 µM); MIC [19]: > 200 µg/mL; MIC [20]: > 200 µg/mL; MIC (Enterobacter cloacae 963): > 200 µg/mL; MIC [21]: 25 µg/mL (≈ 86.1 µM); MIC [22]: 100 µg/mL (≈ 345 µM); MIC [23]: 50 µg/mL (≈ 172 µM); MIC [24]: 6.25 µg/mL; MIC [25]: > 100 µg/mL; MIC [26]: > 100 µg/mL
[C-]#[N+]C12CC3(/C=C/C(=O)Nc4ccc(I)cc4)OC3C1O2 (stereo not drawn) [compound 45]	12.5 (≈ 31.7 µM)	> 200	12.5 (≈ 31.7 µM)	> 200	> 200	> 200	6.25 (≈ 15.9 µM)	> 200	> 200	> 200	50 (≈ 127 µM)	> 200	> 200	> 200	> 200	> 200	> 200	100 (≈ 254 µM)	> 200	0.78 (≈ 1.98 µM)	MIC (Proteus vulgaris HX-19): 0.78 µg/mL (≈ 1.98 µM); MIC [19]: > 200 µg/mL; MIC [20]: > 200 µg/mL; MIC (Enterobacter cloacae 963): > 200 µg/mL; MIC [21]: < 0.05 µg/mL; MIC [22]: > 200 µg/mL; MIC [23]: > 200 µg/mL; MIC [24]: < 0.2 µg/mL; MIC [25]: 3.13 µg/mL (≈ 7.94 µM); MIC [26]: 3.13 µg/mL (≈ 7.94 µM)
